Where a name gives a salt, the structure may show the parent alone.
Key:
[1] = target: T1, human α2B adrenergic receptor (Homo sapiens, UniProt P18089); assay: Radioligand binding assay, [3H]rauwolscine competition
T1 construct: expressed in transfected cells
T1 sequence (P18089 1-450): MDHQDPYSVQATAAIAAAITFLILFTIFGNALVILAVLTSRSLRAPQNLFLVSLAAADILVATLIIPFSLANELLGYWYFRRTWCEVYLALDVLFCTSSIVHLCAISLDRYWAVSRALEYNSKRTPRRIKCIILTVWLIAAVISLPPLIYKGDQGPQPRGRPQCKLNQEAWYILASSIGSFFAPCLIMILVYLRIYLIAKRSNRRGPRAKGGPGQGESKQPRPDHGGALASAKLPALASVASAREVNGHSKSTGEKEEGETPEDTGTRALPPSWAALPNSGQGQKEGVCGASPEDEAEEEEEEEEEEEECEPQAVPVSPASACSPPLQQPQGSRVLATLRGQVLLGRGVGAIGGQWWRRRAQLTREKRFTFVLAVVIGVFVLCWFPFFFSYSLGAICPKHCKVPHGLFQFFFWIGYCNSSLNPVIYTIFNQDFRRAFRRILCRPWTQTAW

[2] = target: T2, human α2A adrenergic receptor (Homo sapiens, UniProt P08913); assay: Agonist activity: inhibition of forskolin-stimulated cAMP synthesis
T2 sequence (P08913 1-465): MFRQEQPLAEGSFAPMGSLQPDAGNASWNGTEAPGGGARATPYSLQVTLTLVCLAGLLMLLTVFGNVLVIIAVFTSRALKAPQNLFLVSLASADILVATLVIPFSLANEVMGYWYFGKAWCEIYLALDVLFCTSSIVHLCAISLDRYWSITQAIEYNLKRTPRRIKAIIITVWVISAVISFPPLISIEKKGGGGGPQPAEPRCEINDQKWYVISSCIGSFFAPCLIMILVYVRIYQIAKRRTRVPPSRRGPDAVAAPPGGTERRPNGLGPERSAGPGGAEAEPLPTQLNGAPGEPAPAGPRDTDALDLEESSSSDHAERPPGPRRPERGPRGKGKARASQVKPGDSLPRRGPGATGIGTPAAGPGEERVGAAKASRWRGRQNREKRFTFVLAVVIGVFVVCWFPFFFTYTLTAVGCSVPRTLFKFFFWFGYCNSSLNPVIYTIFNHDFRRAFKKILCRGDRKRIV

[3] = target: T1, human α2B adrenergic receptor; assay: as above; type: cell-based
[4] = target: T2, human α2A adrenergic receptor; assay: Radioligand binding assay, [3H]rauwolscine competition; design: expressed in transfected cells
[5] = target: T3, human α2C adrenergic receptor (Homo sapiens, UniProt P18825); assay: Agonist activity: inhibition of forskolin-stimulated cAMP synthesis; type: cell-based
T3 construct: The entire coding region of α2C (1383 bp), including 2 bp of 5′ UT and 400 bp of 3′ UT; expressed in transfected cells
T3 sequence (P18825 1-462): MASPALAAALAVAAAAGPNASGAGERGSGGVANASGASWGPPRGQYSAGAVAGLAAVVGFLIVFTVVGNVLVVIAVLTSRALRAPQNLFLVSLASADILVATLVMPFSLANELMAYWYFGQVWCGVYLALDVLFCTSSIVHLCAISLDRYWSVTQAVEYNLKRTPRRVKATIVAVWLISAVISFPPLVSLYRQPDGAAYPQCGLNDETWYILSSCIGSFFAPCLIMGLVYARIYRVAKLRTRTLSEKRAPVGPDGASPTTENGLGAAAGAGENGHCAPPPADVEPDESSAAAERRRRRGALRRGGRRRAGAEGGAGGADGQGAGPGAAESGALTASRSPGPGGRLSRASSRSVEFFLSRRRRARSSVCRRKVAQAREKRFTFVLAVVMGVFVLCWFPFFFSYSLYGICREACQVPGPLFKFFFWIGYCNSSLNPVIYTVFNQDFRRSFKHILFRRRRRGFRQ

[6] = target: T3, human α2C adrenergic receptor; assay: Radioligand binding assay, [3H]rauwolscine competition
[7] = target: human α2A adrenergic receptor (Homo sapiens, UniProt P08913); assay: Agonist activity: inhibition of forskolin-stimulated cAMP synthesis; remark: listed apart in the source
[8] = target: human α2C adrenergic receptor (Homo sapiens, UniProt P18825); assay: Radioligand binding assay, [3H]rauwolscine competition

Compound	melting point [°C]	other results
Cc1cc(NC2=NCCS2)cc2cc[nH]c12 [Example 8, 7-Methyl-5-(2-thiazolin-2-ylamino)indole]		Ki [1]: 4.9 nM; EC50 [2]: 13.8 nM; I.A (Intrinsic Activity) Alpha-2 A ([2]; maximum activity relative to maximum activity induced by norepinephrine, human α2A): 0.60; EC50 ([3]; inhibition of forskolin-stimulated cAMP, stably transfected cells expressing human α2B, read-out: pEC50 Alpha-2 B (converted)): 44.7 nM; I.A (Intrinsic Activity) Alpha-2 B ([3]; maximum activity relative to maximum activity induced by norepinephrine, human α2B): 0.80; Ki [4]: 0.832 nM; EC50 ([5]; inhibition of forskolin-stimulated cAMP, stably transfected cells expressing human α2C, read-out: pEC50 Alpha-2 C (converted)): 2.19 nM; I.A (Intrinsic Activity) Alpha-2 C ([5]; maximum activity relative to maximum activity induced by norepinephrine, human α2C): 1.00; Ki [6]: 24 nM
c1nc2ccc(NC3=NCCS3)cc2s1 (as salt: fumarate) [Example 15, 6-(2-Thiazolin-2-ylamino)benzothiazole]	181 to 183	
c1nc2ccc(NC3=NCCN3)cc2s1 (as salt: fumarate) [Example 14, 6-(2-Imidazolin-2-ylamino)benzothiazole]	215 to 216	
c1nc2ccc(NC3=NCCN3)cc2s1		EC50 [7]: 417 nM; Ki [8]: 102 nM
c1nc2ccc(NC3=NCCS3)cc2s1		Ki [8]: 1070 nM
Cc1cc(NC2=NCCS2)cc2cc[nH]c12 (as salt: fumarate) [Example 8, 7-Methyl-5-(2-thiazolin-2-ylamino)indole]	200 to 202	
Brc1cc(NC2=NCCN2)cc2cc[nH]c12 (as salt: fumarate) [Example 2, 7-Bromo-5-(2-imidazolin-2-ylamino)indole]	272 to 273	
C=C(C)c1cc(NC2=NCCN2)cc2cc[nH]c12 (as salt: maleate)	154 to 156	
Cc1c(NC2=NCCN2)ccc2ncsc12 (as salt: fumarate)	213 to 215	
Clc1cc(NC2=NCCN2)cc2ncsc12 (as salt: fumarate)	203 to 205	
c1nc2cc(NC3=NCCN3)ccc2s1 (as salt: fumarate) [Example 13, 5-(2-Imidazolin-2-ylamino)benzothiazole]	201 to 203	

Second part, led by results:

melting point [°C]	Compound	other results
215 to 218	Cc1c(NC2=NCCN2)ccc2[nH]ccc12 (as salt: fumarate)	
218 to 220	CCc1cc(NC2=NCCN2)cc2ncsc12 (as salt: fumarate)	
179 to 181	Cc1cc(NC2=NCCN2)cc2ncsc12 (as salt: fumarate)	
209 to 211	Brc1cc(NC2=NCCN2)cc2ncsc12 (as salt: fumarate)	
254 to 255	CC(C)c1cc(NC2=NCCN2)cc2cc[nH]c12 (as salt: succinate)	
261 to 262	Clc1cc(NC2=NCCN2)cc2cc[nH]c12 (as salt: fumarate)	
224 to 226	Cc1cc(NC2=NCCN2)cc2cc[nH]c12 (as salt: fumarate)	

Source: patent US6723741B2, “Benzimidazoles and benzothiazoles and uses thereof” (Synaptic Pharmaceutical Corporation, priority 1996, dated 2004)
